Source: the NIST ThermoML archive (doi:10.1016/j.jct.2019.05.015)
Where “and” joins values, the source holds several entries; their conditions need not be identical. Identical values can stand only once.

Legend:
[1] = molar heat capacity at constant pressure; conditions: 101.33 kPa, DSC
[2] = Molar enthalpy of transition or fusion; conditions: Crystal; DSC
[3] = for Normal melting temperature: Crystal, DTA; for Glass transition temperature: DSC

Nc1cccc(N)c1 [1,3-benzenediamine]
[1]
Conditions | molar heat capacity at constant pressure [J/K/mol]
223 K, Crystal | 108.9
243 K, Crystal | 121.4
253 K, Metastable liquid | 207.5
263 K, Crystal | 133.8
273 K, Metastable liquid | 213.4
283 K, Crystal | 146.2
293 K, Metastable liquid | 219.3
303 K, Crystal | 158.7
313 K, Metastable liquid | 225.2
323 K, Metastable liquid | 229.7
333 K, Metastable liquid | 231.2
343 K, Liquid | 234
353 K, Liquid | 237.1
363 K, Liquid | 240.2

Conditions | Glass transition temperature [°C] | Molar enthalpy of transition or fusion [kcal/mol] | Normal melting temperature [°C]
[2] | – | 3.71 | –
[3] | -29 | – | 63.0

Oc1cccc(O)c1 [1,3-benzenediol]
molar heat capacity at constant pressure [J/K/mol], [1]
Conditions | 233 K | 253 K | 273 K | 293 K | 303 K | 313 K | 323 K | 333 K | 343 K | 363 K
Crystal | 103.9 | 114.4 | 124.9 | 135.3 | – | 145.8 | – | 156.3 | – | –
Metastable liquid | – | – | – | – | 237.2 | – | 245.8 | – | 254.3 | 262.9

Conditions | Molar enthalpy of transition or fusion [kcal/mol] | Normal melting temperature [°C]
[2] | 4.82 | –
[3] | – | 109.1

Oc1ccc2c(O)cccc2c1 [1,6-dihydroxynaphthalene]
[1]
Conditions | molar heat capacity at constant pressure
218 K, Glass | 131.4 J/K/mol
238 K, Glass | 147.4 J/K/mol
243 K, Crystal | 149.1 J/K/mol
258 K, Glass | 163.5 J/K/mol
263 K, Crystal | 161.4 J/K/mol
283 K, Crystal | 173.7 J/K/mol
303 K, Crystal | 186 J/K/mol
323 K, Crystal | 197.9 J/K/mol and 198.4 J/K/mol
323 K, Metastable liquid | 311.2 J/K/mol
343 K, Crystal | 210.6 J/K/mol and 210.7 J/K/mol
343 K, Metastable liquid | 315.6 J/K/mol
363 K, Crystal | 223.2 J/K/mol and 223 J/K/mol
363 K, Metastable liquid | 319.9 J/K/mol
383 K, Crystal | 235.9 J/K/mol
383 K, Metastable liquid | 324.3 J/K/mol
403 K, Metastable liquid | 328.7 J/K/mol

Conditions | Glass transition temperature [°C] | Molar enthalpy of transition or fusion [kcal/mol] | Normal melting temperature [°C]
[2] | – | 6.17 | –
[3] | 32 | – | 137.1

Nc1cccc2ccccc12 [1-naphthalenamine]
Conditions | Molar enthalpy of transition or fusion [kcal/mol] | Normal melting temperature [°C]
[2] | 3.46 | –
[3] | – | 48.2

Oc1cccc2ccccc12 [1-naphthol]
Conditions | Molar enthalpy of transition or fusion [kcal/mol] | Normal melting temperature [°C]
[2] | 5.23 | –
[3] | – | 94.8

Oc1ccc2ccccc2c1 [2-hydroxynaphthalene]
Conditions | Molar enthalpy of transition or fusion [kcal/mol] | Normal melting temperature [°C]
[2] | 5.35 | –
[3] | – | 121.2

Nc1ccc2ccccc2c1 [2-naphthalenamine]
Conditions | Molar enthalpy of transition or fusion [kcal/mol] | Normal melting temperature [°C]
[2] | 5.32 | –
[3] | – | 109.5

Nc1ccc(Cl)cc1 [4-chlorobenzenamine]
Conditions | Molar enthalpy of transition or fusion [kcal/mol] | Normal melting temperature [°C]
[2] | 4.71 | –
[3] | – | 70

Cc1ccc(O)cc1 [4-methylphenol]
Conditions | Molar enthalpy of transition or fusion [kcal/mol] | Normal melting temperature [°C]
[2] | 2.81 | –
[3] | – | 34.8
